Laboratory results from PubChem BioAssay (NCI).
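All cell lines were grown in 96-well plates and treated with compound for 48 hours. GI50: concentration for 50% inhibition of growth. The concentration for full growth arrest is given as TGI.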

Tests used:
Test in all cases: NCI tumour cell line growth inhibition, 48 h
DMS 273 small cell lung = system: DMS 273 small cell lung
P388/ADR leukemia = system: P388/ADR leukemia
SN12K1 renal = system: SN12K1 renal
MCF7 breast = system: MCF7 breast
DU-145 prostate = system: DU-145 prostate
MDA-MB-231 breast = system: MDA-MB-231 breast
M14 melanoma = system: M14 melanoma
T-47D breast = system: T-47D breast
MDA-MB-435 = system: MDA-MB-435
PC-3 prostate = system: PC-3 prostate
MDA-N = system: MDA-N
BT-549 breast = system: BT-549 breast
LXFL 529 NSCLC = system: LXFL 529 NSCLC
XF 498 CNS = system: XF 498 CNS
P388 leukemia = system: P388 leukemia
RXF-631 renal = system: RXF-631 renal

Structure (SMILES)	TGI (DMS 273 small cell lung) [µM]	TGI (MCF7 breast) [µM]	TGI (DU-145 prostate) [µM]	TGI (MDA-MB-231 breast) [µM]	TGI (M14 melanoma) [µM]	TGI (T-47D breast) [µM]	TGI (MDA-MB-435) [µM]	TGI (PC-3 prostate) [µM]	TGI (MDA-N) [µM]	TGI (BT-549 breast) [µM]	TGI (LXFL 529 NSCLC) [µM]	further results
Oc1c2c(c3c4c1N=CC=4CCN=3)C1(C=C(Br)C(O)C(Br)=C1)CCN2 (stereo not drawn)	3.45	2.73	–	–	–	–	–	–	–	–	–	TGI (P388/ADR leukemia): 4.81 µM; TGI (SN12K1 renal): 10.7 µM
CCN(CC)CCOCC1CCCN2CCCCC12 (stereo not drawn)	–	> 100	> 100	> 100	> 100	> 100	> 100	> 100	> 100	> 100	–	–
CCCC(=O)[O-].CCCC(=O)[O-].N.N.N.N.[Co+3].[O-][Cl+3]([O-])([O-])[O-]	–	–	–	–	> 100	–	–	–	–	–	> 100	GI50 (LXFL 529 NSCLC): > 100 µM
Cc1n(-c2ccccc2)c2c([n+]1Cc1ccc([N+](=O)[O-])cc1)C(=O)c1ccccc1C2=O	3.87	2.75	3.28	3.08	7	3.43	3.12	7.25	3.16	3.18	2.76	–
Cc1cc(=O)[nH]c(NN2C(Cl)C(=O)C2c2c(O)ccc3ccccc23)n1 (stereo not drawn)	33.1	–	–	–	29	–	–	–	–	–	30.3	–
COc1cc(O)c2c(c1O)C(=O)c1cc(C)ncc1C2=O	–	–	–	–	> 50	–	–	–	–	–	> 50	TGI (XF 498 CNS): > 50 µM
CCCCCCCSCC1OC(n2cnc3c(N)ncnc32)C(O)C1O (stereo not drawn)	54.2	–	–	–	48.5	–	–	–	–	–	29.8	TGI (XF 498 CNS): 97.6 µM
C[N+]1(CCCC[N+]2(C)CCCCCCC2)CCCCCCC1	–	–	> 100	> 100	> 100	> 100	> 100	> 100	> 100	> 100	–	–
NS(=O)(=O)c1ccc(N=Nc2nc3[nH]cnc(=S)c3[nH]2)cc1	–	> 100	41.1	> 25.3	> 32.6	> 25.3	> 100	> 41.4	> 38.9	> 37.9	–	–
Cc1n(CC(C)C)c2c([n+]1CC(=O)c1ccc([N+](=O)[O-])cc1)C(=O)c1ccccc1C2=O	0.161	< 0.01	–	–	–	–	–	–	–	–	–	TGI (P388 leukemia): 0.563 µM; TGI (P388/ADR leukemia): 61.3 µM; TGI (SN12K1 renal): 0.279 µM
OCCN1CCN(c2nc(Nc3ccc(-c4nc5ccccc5[nH]4)cc3)c3cn[nH]c3n2)CC1	–	3.54	–	–	–	–	3.29	3.13	–	–	–	GI50 (MDA-MB-435): 1.82 µM; GI50 (PC-3 prostate): 1.64 µM; GI50 (MCF7 breast): 1.59 µM
Nc1nc(Sc2ccc([N+](=O)[O-])cn2)c2[nH]cnc2n1	–	> 100	43.8	35.1	24.1	> 42.3	> 46.1	47.6	34.6	52.1	–	–
C=CCCCCn1c2ccccc2c2c(C)c3c[n+](C)ccc3c(C)c21	–	–	–	–	2.19	–	–	–	–	–	1.32	–
NC(N)=NCCCC(NCc1c2ccccc2[n+]([O-])c2ccccc12)C(=O)O (stereo not drawn)	> 100	–	–	–	> 100	–	–	–	–	–	> 100	TGI (RXF-631 renal): > 100 µM
Clc1ccc2c(Cl)nc(-c3ccccc3)nc2c1	> 100	–	–	–	–	–	–	–	–	–	> 100	TGI (XF 498 CNS): 35.6 µM
